Assay results from patent US10166218B2, “3-(1H-indol-2-yl)-1H-pyrazolo[3,4-C]pyridines and therapeutic uses thereof” (Samumed, LLC, priority 2015, dated 2019).

Experiments:
Type in all cases: cell-based
SW480 colon cancer cells = assay: Cell viability assay (CellTiter-Blue) in SW480 colon cancer cells; details: Homo sapiens, 96 h, four days; for EC50: CellTiter-Blue; for inhibition at 10 µM: read-out: percent inhibition at 10 μM (given for EC50 of >10 μM)
Procedure, shortened: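 SW480 colon cancer cells (~2×10^3/well) exposed to 8-point 1:3 dilutions from 10 μM to 0.0045 μM for four days at 37 °C/5% CO2. Viability read by resazurin (CellTiter-Blue) fluorescence after ~3 h, Ex 560/Em 590 nm. EC50 from non-linear regression; percent inhibition at 10 μM given when EC50 >10 μM.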

IL-6 (THP-1 cells) = assay: Inhibition of IL-6 in LPS-stimulated THP-1 human monocyte cells (HTRF); details: for inhibition at 10 µM: IL-6 assay in LPS-stimulated THP-1 cells, given only where EC50 >10 μM, meaning not given (top concentration 10 μM), read-out: percentage given in parentheses after EC50 >10; for EC50: inhibition of IL-6 in LPS-stimulated THP-1 cells, HTRF, 10-point dose-response starting from 10 μM
Procedure, shortened: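 THP-1 cells, serum-reduced (1% FBS) for 24 h, were preincubated with compound (10-point 1:3 series from 10 μM, 0.1% DMSO) for 2 h, then stimulated with 500 ng/mL LPS for 22 h at 37° C. IL-6 was read by HTRF (665/620 nm ratio) and normalized to DMSO. EC50 from four-parameter fit; % inhibition at 10 μM given if EC50 >10 μM.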

[1] = tested on: Wnt activity (Sp5-Luc reporter, TCF/LEF binding sites) in SW480 colon carcinoma cells; assay: Screening assay for Wnt activity: Sp5-Luc reporter gene assay in stably transduced SW480 cells; details: Homo sapiens; for EC50: overnight incubation; for inhibition at 10 µM: read-out: percent inhibition at 10 μM (given for EC50 of >10 μM)
Procedure, shortened: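 SW480 cells stably transduced with an Sp5 promoter (eight TCF/LEF sites)–firefly luciferase lentiviral reporter, plated at 4,000 cells/well in 1% FBS medium with compounds (10-point 1:3 series from 10 μM, 0.1% DMSO) overnight at 37 °C. BrightGlo luminescence normalised to DMSO; EC50 by four-parameter fit, else % inhibition at 10 μM.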

Cc1ccncc1-c1cc2c(-c3cc4c(-c5cccc(F)c5)cccc4[nH]3)n[nH]c2cn1 [Compound 5, 3-(4-(3-Fluorophenyl)-1H-indol-2-yl)-5-(4-methylpyridin-3-yl)-1H-pyrazolo [3,4-c]pyridine]
EC50 (SW480 colon cancer cells): 6840 nM | inhibition at 10 µM (IL-6 (THP-1 cells)): 30.7% | EC50 (IL-6 (THP-1 cells)): > 10000 nM | EC50 [1]: 590 nM

O=C(Nc1cncc(-c2cc3c(-c4cc5c(-c6cccc(F)c6)cccc5[nH]4)n[nH]c3cn2)c1)c1ccccc1 [Compound 11, N-(5-(3-(4-(3-Fluorophenyl)-1H-indol-2-yl)-1H-pyrazolo[3,4-c]pyridin-5-yl)pyridin-3-yl)benzamide]
EC50 (SW480 colon cancer cells): 5420 nM | EC50 (IL-6 (THP-1 cells)): 3210 nM | inhibition at 10 µM [1]: 50.2% | EC50 [1]: > 10000 nM

O=C(Nc1cncc(-c2cc3c(-c4cc5c(-c6cccc(F)c6)cccc5[nH]4)n[nH]c3cn2)c1)C1CCC1 [Compound 21, N-(5-(3-(4-(3-Fluorophenyl)-1H-indol-2-yl)-1H-pyrazolo[3,4-c]pyridin-5-yl)pyridin-3-yl)cyclobutanecarboxamide]
inhibition at 10 µM (SW480 colon cancer cells): 11.5% | EC50 (SW480 colon cancer cells): > 10000 nM | inhibition at 10 µM (IL-6 (THP-1 cells)): 0% | EC50 (IL-6 (THP-1 cells)): > 10000 nM | EC50 [1]: 1510 nM

CC(C)CC(=O)Nc1cncc(-c2cc3c(-c4cc5c(-c6ccc(F)cc6)cccc5[nH]4)n[nH]c3cn2)c1 [Compound 30, N-(5-(3-(4-(4-Fluorophenyl)-1H-indol-2-yl)-1H-pyrazolo[3,4-c]pyridin-5-yl)pyridin-3-yl)-3-methylbutanamide]
inhibition at 10 µM (SW480 colon cancer cells): 28.3% | EC50 (SW480 colon cancer cells): > 10000 nM | EC50 (IL-6 (THP-1 cells)): 5130 nM | EC50 [1]: 1540 nM

CCNCc1cncc(-c2cc3c(-c4cc5c(-c6ccc(F)cc6)cccc5[nH]4)n[nH]c3cn2)c1 [Compound 34, N-((5-(3-(4-(4-Fluorophenyl)-1H-indol-2-yl)-1H-pyrazolo[3,4-c]pyridin-5-yl)pyridin-3-yl)methyl)ethanamine]
EC50 (SW480 colon cancer cells): 805 nM | EC50 (IL-6 (THP-1 cells)): 399 nM | EC50 [1]: 382 nM

O=C(Cc1ccccc1)Nc1cncc(-c2cc3c(-c4cc5c(-c6ccc(F)cc6)cccc5[nH]4)n[nH]c3cn2)c1 [Compound 38, N-(5-(3-(4-(4-Fluorophenyl)-1H-indol-2-yl)-1H-pyrazolo[3,4-c]pyridin-5-yl)pyridin-3-yl)-2-phenylacetamide]
EC50 (SW480 colon cancer cells): 4320 nM | inhibition at 10 µM (IL-6 (THP-1 cells)): 29.4% | EC50 (IL-6 (THP-1 cells)): > 10000 nM | EC50 [1]: 4310 nM

Fc1ccc(-c2cccc3[nH]c(-c4n[nH]c5cnc(-c6cncc(CN7CCCC7)c6)cc45)cc23)cc1 [Compound 42, 3-(4-(4-Fluorophenyl)-1H-indol-2-yl)-5-(5-(pyrrolidin-1-ylmethyl)pyridin-3-yl)-1H-pyrazolo[3,4-c]pyridine]
EC50 (SW480 colon cancer cells): 1080 nM | EC50 (IL-6 (THP-1 cells)): 3810 nM | EC50 [1]: 1840 nM

O=C(Nc1cncc(-c2cc3c(-c4cc5c(-c6ccc(F)cc6)cccc5[nH]4)n[nH]c3cn2)c1)C1CCCCC1 [Compound 51, N-(5-(3-(4-(4-Fluorophenyl)-1H-indol-2-yl)-1H-pyrazolo[3,4-c]pyridin-5-yl)pyridin-3-yl)cyclohexanecarboxamide]
EC50 (SW480 colon cancer cells): 9620 nM | inhibition at 10 µM (IL-6 (THP-1 cells)): 6.7% | EC50 (IL-6 (THP-1 cells)): > 10000 nM | inhibition at 10 µM [1]: 32.6% | EC50 [1]: > 10000 nM

Fc1ccc(-c2cccc3[nH]c(-c4n[nH]c5cnc(-c6cncnc6)cc45)cc23)cc1 [Compound 55, 3-(4-(4-Fluorophenyl)-1H-indol-2-yl)-5-(pyrimidin-5-yl)-1H-pyrazolo[3,4-c]pyridine]
inhibition at 10 µM (SW480 colon cancer cells): 13.6% | EC50 (SW480 colon cancer cells): > 10000 nM | EC50 (IL-6 (THP-1 cells)): 9590 nM | EC50 [1]: 4140 nM

Nc1cncc(-c2cc3c(-c4cc5c(-c6ccccc6F)cccc5[nH]4)n[nH]c3cn2)c1 [Compound 59, 5-(3-(4-(2-Fluorophenyl)-1H-indol-2-yl)-1H-pyrazolo[3,4-c]pyridin-5-yl) pyridin-3-amine]
EC50 (SW480 colon cancer cells): 1300 nM | EC50 (IL-6 (THP-1 cells)): 968 nM | EC50 [1]: 296 nM

CC(C)C(=O)Nc1cncc(-c2cc3c(-c4cc5c(-c6ccccc6F)cccc5[nH]4)n[nH]c3cn2)c1 [Compound 65, N-(5-(3-(4-(2-Fluorophenyl)-1H-indol-2-yl)-1H-pyrazolo[3,4-c]pyridin-5-yl)pyridin-3-yl)isobutyramide]
EC50 (SW480 colon cancer cells): 5050 nM | inhibition at 10 µM (IL-6 (THP-1 cells)): 30.1% | EC50 (IL-6 (THP-1 cells)): > 10000 nM | inhibition at 10 µM [1]: 35.8% | EC50 [1]: > 10000 nM

Fc1ccccc1-c1cccc2[nH]c(-c3n[nH]c4cnc(-c5cncc(CN6CCCCC6)c5)cc34)cc12 [Compound 71, 3-(4-(2-Fluorophenyl)-1H-indol-2-yl)-5-(5-(piperidin-1-ylmethyl)pyridin-3-yl)-1H-pyrazolo[3,4-c]pyridine]
EC50 (SW480 colon cancer cells): 1660 nM | EC50 (IL-6 (THP-1 cells)): 7660 nM | EC50 [1]: 2090 nM

CCCCC(=O)Nc1cncc(-c2cc3c(-c4cc5c(-c6ccccc6F)cccc5[nH]4)n[nH]c3cn2)c1 [Compound 75, N-(5-(3-(4-(2-Fluorophenyl)-1H-indol-2-yl)-1H-pyrazolo[3,4-c]pyridin-5-yl)pyridin-3-yl)pentanamide]
inhibition at 10 µM (SW480 colon cancer cells): 10.7% | EC50 (SW480 colon cancer cells): > 10000 nM | EC50 (IL-6 (THP-1 cells)): 3 nM | inhibition at 10 µM [1]: 11.1% | EC50 [1]: > 10000 nM

O=C(Nc1cncc(-c2cc3c(-c4cc5c(-c6ccccc6F)cccc5[nH]4)n[nH]c3cn2)c1)C1CC1 [Compound 76, N-(5-(3-(4-(2-Fluorophenyl)-1H-indol-2-yl)-1H-pyrazolo[3,4-c]pyridin-5-yl)pyridin-3-yl)cyclopropanecarboxamide]
EC50 (SW480 colon cancer cells): 6550 nM | inhibition at 10 µM (IL-6 (THP-1 cells)): 11.1% | EC50 (IL-6 (THP-1 cells)): > 10000 nM | EC50 [1]: 940 nM

CCC(=O)Nc1cncc(-c2cc3c(-c4cc5c(-c6cccnc6)cccc5[nH]4)n[nH]c3cn2)c1 [Compound 85, N-(5-(3-(4-(Pyridin-3-yl)-1H-indol-2-yl)-1H-pyrazolo[3,4-c]pyridin-5-yl)pyridin-3-yl)propionamide]
EC50 (SW480 colon cancer cells): 1160 nM | EC50 (IL-6 (THP-1 cells)): 74 nM | EC50 [1]: 305 nM

c1cncc(-c2cc3c(-c4cc5c(-c6cccnc6)cccc5[nH]4)n[nH]c3cn2)c1 [Compound 88, 5-(Pyridin-3-yl)-3-(4-(pyridin-3-yl)-1H-indol-2-yl)-1H-pyrazolo[3,4-c]pyridine]
EC50 (SW480 colon cancer cells): 1090 nM | EC50 (IL-6 (THP-1 cells)): 109 nM | EC50 [1]: 260 nM

CC(C)C(=O)Nc1cncc(-c2cc3c(-c4cc5c(-c6cccnc6)cccc5[nH]4)n[nH]c3cn2)c1 [Compound 93, N-(5-(3-(4-(Pyridin-3-yl)-1H-indol-2-yl)-1H-pyrazolo[3,4-c]pyridin-5-yl)pyridin-3-yl)isobutyramide]
EC50 (SW480 colon cancer cells): 305 nM | EC50 (IL-6 (THP-1 cells)): 181 nM | EC50 [1]: 275 nM

O=C(Nc1cncc(-c2cc3c(-c4cc5c(-c6cccnc6)cccc5[nH]4)n[nH]c3cn2)c1)c1ccccc1 [Compound 95, N-(5-(3-(4-(Pyridin-3-yl)-1H-indol-2-yl)-1H-pyrazolo[3,4-c]pyridin-5-yl)pyridin-3-yl)benzamide]
EC50 (SW480 colon cancer cells): 1400 nM | EC50 (IL-6 (THP-1 cells)): 727 nM | EC50 [1]: 400 nM

c1cncc(-c2cccc3[nH]c(-c4n[nH]c5cnc(-c6cncc(CN7CCCC7)c6)cc45)cc23)c1 [Compound 98, 3-(4-(Pyridin-3-yl)-1H-indol-2-yl)-5-(5-(pyrrolidin-1-ylmethyl)pyridin-3-yl)-1H-pyrazolo[3,4-c]pyridine]
EC50 (SW480 colon cancer cells): 7220 nM | EC50 (IL-6 (THP-1 cells)): 1520 nM | EC50 [1]: 1200 nM

O=C(Nc1cncc(-c2cc3c(-c4cc5c(-c6cccnc6)cccc5[nH]4)n[nH]c3cn2)c1)C1CC1 [Compound 104, N-(5-(3-(4-(Pyridin-3-yl)-1H-indol-2-yl)-1H-pyrazolo[3,4-c]pyridin-5-yl)pyridin-3-yl)cyclopropanecarboxamide]
EC50 (SW480 colon cancer cells): 1470 nM | EC50 (IL-6 (THP-1 cells)): 226 nM | EC50 [1]: 336 nM

Cc1ccncc1-c1cc2c(-c3cc4c(-c5ccncc5)cccc4[nH]3)n[nH]c2cn1 [Compound 117, 5-(4-Methylpyridin-3-yl)-3-(4-(pyridin-4-yl)-1H-indol-2-yl)-1H-pyrazolo [3,4-c]pyridine]
inhibition at 10 µM (SW480 colon cancer cells): 16.6% | EC50 (SW480 colon cancer cells): > 10000 nM | inhibition at 10 µM (IL-6 (THP-1 cells)): 53% | EC50 (IL-6 (THP-1 cells)): > 10000 nM | inhibition at 10 µM [1]: 43.1% | EC50 [1]: > 10000 nM

CC(C)(C)C(=O)Nc1cncc(-c2cc3c(-c4cc5c(-c6ccncc6)cccc5[nH]4)n[nH]c3cn2)c1 [Compound 120, N-(5-(3-(4-(Pyridin-4-yl)-1H-indol-2-yl)-1H-pyrazolo[3,4-c]pyridin-5-yl)pyridin-3-yl)pivalamide]
inhibition at 10 µM (SW480 colon cancer cells): 32.2% | EC50 (SW480 colon cancer cells): > 10000 nM | EC50 (IL-6 (THP-1 cells)): 2500 nM | EC50 [1]: 194 nM

CC(C)(C)CC(=O)Nc1cncc(-c2cc3c(-c4cc5c(-c6ccncc6)cccc5[nH]4)n[nH]c3cn2)c1 [Compound 128, 3,3-Dimethyl-N-(5-(3-(4-(pyridin-4-yl)-1H-indol-2-yl)-1H-pyrazolo[3,4-c]pyridin-5-yl)pyridin-3-yl)butanamide]
inhibition at 10 µM (SW480 colon cancer cells): 14% | EC50 (SW480 colon cancer cells): > 10000 nM | inhibition at 10 µM (IL-6 (THP-1 cells)): 0% | EC50 (IL-6 (THP-1 cells)): > 10000 nM | inhibition at 10 µM [1]: 46.5% | EC50 [1]: > 10000 nM
